“And” between values parts separate entries of the source, which are not always exact repeats. Equal values may be shown once. Read-outs that look alike come from different tables or passages of the source.
Biological target: integrin αvβ3 (Homo sapiens, UniProt P05106+P06756)
Conditions: for decrease in BpND after blocking with an excess amount of unlabeled RGD peptide: blocked vs unblocked; for tumor washout (time-activity curves): MDA-MB-435 tumor, unblocked
[1] = Blocked: c(RGDyK) injected 10 min before scanning, tumor region, MDA-MB-435 tumor-bearing mice, 60-min dynamic PET, mean ± SD, n = 4/group
[2] = Blocked: c(RGDyK) injected 10 min before scanning, tumor region, MDA-MB-435 tumor-bearing mice, 60-min dynamic PET, three-compartment model fit, mean ± SD, n = 4/group
[3] = MDA-MB-435 tumor-bearing mice, n = 4/group
[4] = 60-min dynamic PET, n = 4/group

Sequence of integrin αvβ3 (P06756 31-889 limits assumed): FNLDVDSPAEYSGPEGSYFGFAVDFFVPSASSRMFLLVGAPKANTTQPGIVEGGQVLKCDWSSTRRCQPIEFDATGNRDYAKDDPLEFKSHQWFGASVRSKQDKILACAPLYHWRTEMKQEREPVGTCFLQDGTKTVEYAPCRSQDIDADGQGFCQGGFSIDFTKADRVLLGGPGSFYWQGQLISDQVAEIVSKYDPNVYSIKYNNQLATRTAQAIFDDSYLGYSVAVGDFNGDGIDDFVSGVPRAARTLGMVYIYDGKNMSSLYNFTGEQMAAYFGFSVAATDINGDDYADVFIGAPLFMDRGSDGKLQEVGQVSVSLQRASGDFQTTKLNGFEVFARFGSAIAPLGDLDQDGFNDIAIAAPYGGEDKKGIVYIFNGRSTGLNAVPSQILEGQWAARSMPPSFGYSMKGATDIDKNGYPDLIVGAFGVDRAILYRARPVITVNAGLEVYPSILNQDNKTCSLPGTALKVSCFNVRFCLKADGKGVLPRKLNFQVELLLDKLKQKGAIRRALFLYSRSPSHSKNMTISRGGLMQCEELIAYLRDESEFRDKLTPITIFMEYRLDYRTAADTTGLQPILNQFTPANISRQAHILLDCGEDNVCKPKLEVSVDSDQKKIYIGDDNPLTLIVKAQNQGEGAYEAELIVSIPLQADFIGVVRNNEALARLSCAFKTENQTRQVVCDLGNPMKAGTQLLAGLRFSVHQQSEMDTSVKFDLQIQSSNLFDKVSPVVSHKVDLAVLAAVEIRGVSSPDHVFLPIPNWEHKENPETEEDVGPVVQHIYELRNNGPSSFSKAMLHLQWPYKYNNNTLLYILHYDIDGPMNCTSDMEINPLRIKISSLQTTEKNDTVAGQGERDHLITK
Sequence of integrin αvβ3 (P06756 891-1048 partner limits assumed): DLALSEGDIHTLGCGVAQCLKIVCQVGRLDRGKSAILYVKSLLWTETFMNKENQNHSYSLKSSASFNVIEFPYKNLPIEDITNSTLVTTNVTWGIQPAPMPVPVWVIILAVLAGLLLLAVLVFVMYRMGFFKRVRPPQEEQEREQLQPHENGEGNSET
Sequence of integrin αvβ3 (P05106 27-788): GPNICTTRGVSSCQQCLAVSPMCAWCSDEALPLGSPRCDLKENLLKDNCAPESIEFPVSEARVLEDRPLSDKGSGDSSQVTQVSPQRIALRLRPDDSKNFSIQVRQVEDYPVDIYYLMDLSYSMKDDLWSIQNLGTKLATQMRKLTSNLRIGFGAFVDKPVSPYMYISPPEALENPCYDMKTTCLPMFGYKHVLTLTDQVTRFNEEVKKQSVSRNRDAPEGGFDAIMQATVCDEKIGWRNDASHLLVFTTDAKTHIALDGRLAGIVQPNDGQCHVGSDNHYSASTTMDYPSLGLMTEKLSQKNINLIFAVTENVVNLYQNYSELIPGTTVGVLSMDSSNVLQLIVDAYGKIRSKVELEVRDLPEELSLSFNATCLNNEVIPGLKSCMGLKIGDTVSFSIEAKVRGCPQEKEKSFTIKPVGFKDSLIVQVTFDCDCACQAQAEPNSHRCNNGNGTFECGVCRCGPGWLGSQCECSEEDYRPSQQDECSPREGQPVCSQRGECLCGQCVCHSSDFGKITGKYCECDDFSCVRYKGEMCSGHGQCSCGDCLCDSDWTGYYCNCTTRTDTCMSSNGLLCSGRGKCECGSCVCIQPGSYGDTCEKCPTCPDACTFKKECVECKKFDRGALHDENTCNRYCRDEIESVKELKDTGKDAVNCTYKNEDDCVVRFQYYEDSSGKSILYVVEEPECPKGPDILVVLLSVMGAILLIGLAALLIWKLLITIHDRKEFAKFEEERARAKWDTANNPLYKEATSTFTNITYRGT

| Substance | BpND (binding potential = k3/k4) [1] | k3 (on-rate for specific binding) [2] [min⁻¹] | BpND (binding potential = k3/k4) (Unblock, tumor region, MDA-MB-435 tumor-bearing mice, 60-min dynamic PET, three-compartment model, mean ± SD, n = 4/group, listed as RGD Monomer) | decrease in BpND after blocking with an excess amount of unlabeled RGD peptide [3] | K1 (transfer from arterial plasma to tissue) (mouse, in vivo) [mL/g/min] | tumor washout (time-activity curves) [4] | BpND (binding potential = k3/k4) (Unblock, tumor region, MDA-MB-435 tumor-bearing mice, 60-min dynamic PET, three-compartment model, mean ± SD, n = 4/group) | k2 (clearance from tissue) (mouse, in vivo) [min⁻¹] | k4 (target dissociation rate) [2] [min⁻¹] | BpND (binding potential = k3/k4) (Unblock, tumor region, MDA-MB-435 tumor-bearing mice, 60-min dynamic PET, three-compartment model, mean ± SD, n = 4/group, listed as RGD Dimer) | specific bound component (Cm) in the tumor region relative to the monomer (at 1-h, separated by model fitting) |
| --- | --- | --- | --- | --- | --- | --- | --- | --- | --- | --- | --- |
| ^18F-FP-c(RGDyK) [^18F-FPRGD] | 1.110±0.155 | 0.051 ± 0.016 | 2.747±0.483 | ~ 60% | 0.276 ± 0.256 | – | – | – | – | – | – |
| ^18F-FP-c(RADyK) [^18F-FPRAD, reference compound] | – | – | – | – | – | most rapid tumor washout | 0.89 ± 0.19 and 0.893±0.192 | 0.334 ± 0.092 | – | – | – |
| ^18F-FP-PEG3-E[c(RGDyK)]2 [^18F-FPPRGD2] | 1.257±0.293 | 0.064 ± 0.023 | – | ~ 80% | 0.082 ± 0.031 | much slower tumor washout | – | – | 0.050 ± 0.009 | 5.865±0.312 | almost twice as much |

From paper PMC3401513 (Molecular imaging and biology : MIB : the official …, 2012)
